From patent US9868715B2 (THE BOARD OF REGENTS OF THE UNIVERSITY OF TEXAS SYSTEMS, priority 2014, dated 2018) come the findings set out here.

Data set [1] relates to transformed PSC (human pancreatic stellate cells). Description: PSC proliferation, AlamarBlue Cell Viability Assay. Particulars: for Inhibitory Effect (%) on PSC proliferation / inhibition at 10 µM: 10 μM; for Inhibitory Effect (%) on PSC proliferation / inhibition at 5 µM / inhibition at 10 µM / inhibition at 20 µM: mean of at least three independent experiments, NE = No effect; for inhibition at 5 µM / inhibition at 10 µM / inhibition at 20 µM: Homo sapiens, read-out: Inhibitory Effect (%) on PSC proliferation; for Antiproliferative effect on PSC, result in words: transformed PSC, AlamarBlue. The format is cell-based. On the procedure:
The calculated lipophilicity (cLogP) and topological polar surface area (tPSA) values of synthesized analogues are listed in Table 1. […] AlamarBlue is a non-toxic reagent that is converted to a highly fluorescent end product by viable cells.
Under an IRB-approved tissue protocol, discarded human resected pancreatic tissue (500 mm^3) was attained fresh from the operating room at the University of Texas Medical Branch. The tissue was minced and plated on a collagen-coated flask (15 μg/mL, Invitrogen) with DMEM (VWR; Radnor, Pa.) supplemented with penicillin 200 U/mL, streptomycin 200 μg/mL, amphotericin B 0.25 μg/mL and gentimicin 50 μg/mL (Invitrogen, Carlsbad Calif.), 10% fetal bovine serum (Lonza, Walkersville, Md.), 1% insulin-transferrin, selenium-ethanolamine (Gibco, Grand Island, N.Y.), and 1% non-essential amino acids (Sigma-Aldrich, St. Louis, Mo.). The human PSC were isolated by the outgrowth method.^41-43 The purity of PSC culture was confirmed by immunohistochemical staining for vimentin, α-smooth muscle actin, glial fibrillar acidic protein, or Oil red O staining. Primary PSC were transformed and immortalized for use in experiments using lentiviral vectors containing SV40 Large T antigen and human telomerase (plasmid #12245 and 12246; Addgene, Cambridge, Mass.). Cultures were maintained in DMEM with 10% FBS, at 37° C. in a humidified 95% O2/5% CO2 atmosphere.
Cell proliferation assay. Transformed PSC (3×10^3) were plated in 96-well plates, in sextuplicate. […] AlamarBlue reagent (10% sample volume, DAL1025) was added to each well per Invitrogen's protocol. Fluorescence was recorded using excitation/emission wavelengths of 544/590 nm and the SpectraMax M2 Microplate Reader (Molecular Devices, Sunnyvale Calif.).
Statistical analysis. Dose-response curves were generated by plotting fluorescence or absorbance versus log (compound concentration). A best-fit curve was created using nonlinear regression, and the IC50 or EC50 determined from the graph (GraphPad Prism 5; GraphPad Software Inc., La Jolla, Calif.). To analyze continuos variables, unpaired student t-tests and one-way ANOVA with Tukey-Kramer multiple comparisons post-test (GraphPad Prism 5). Significance was set at p<0.05.
Background: Alamar Blue is a resazurin reagent that responds to reducing activity.

A short description of data set [2]: Aqueous solubility by HPLC analysis method. As to conditions: in the form of HCl salt. The format is physicochemical.
Data set [3] concerns the target T1, human CBS (cystathionine-β-synthase) (Homo sapiens, UniProt P35520).
T1 construct: GST (N); made in house; host or cells: E. coli BL21(DE3) Codon Plus
T1 sequence (P35520 1-551): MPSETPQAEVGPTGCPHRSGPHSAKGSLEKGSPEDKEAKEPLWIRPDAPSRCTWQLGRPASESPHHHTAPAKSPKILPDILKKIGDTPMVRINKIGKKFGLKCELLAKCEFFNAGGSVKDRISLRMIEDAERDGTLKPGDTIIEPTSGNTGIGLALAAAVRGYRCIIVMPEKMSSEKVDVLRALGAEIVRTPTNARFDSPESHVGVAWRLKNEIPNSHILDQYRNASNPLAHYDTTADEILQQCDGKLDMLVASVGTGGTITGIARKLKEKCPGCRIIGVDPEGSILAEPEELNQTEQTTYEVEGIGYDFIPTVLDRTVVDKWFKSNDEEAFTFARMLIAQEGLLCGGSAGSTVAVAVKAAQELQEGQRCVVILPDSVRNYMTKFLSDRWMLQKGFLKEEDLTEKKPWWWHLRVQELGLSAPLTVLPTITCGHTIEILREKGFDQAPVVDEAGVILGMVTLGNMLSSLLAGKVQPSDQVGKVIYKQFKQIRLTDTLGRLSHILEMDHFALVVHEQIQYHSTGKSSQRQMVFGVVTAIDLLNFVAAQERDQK
Kind of data set: H2S production by recombinant CBS. The format is biochemical. As to conditions: 100 μM compound; H2S production as % of control (100%). On the procedure:
Recombinant human CBS protein expression and purification. The expression and purification of human CBS was performed as described previously (Asimakopoulou et al. 2013, Br J Pharmacol. 169(4):922-32). Briefly, E. Coli BL21(DE3) Codon Plus cells (Stratagene, La Jolla, Calif., USA) containing the expression vector pGEX-Kg/GST-CBS were grown at 37° C. and 180 rpm in LuriaBertani (LB) broth medium containing 100 μg/ml ampicillin to an absorption of 0.6-0.8 at 600 nm. Protein expression was induced by addition of 0.1 mM IPTG (isopropyl-b-D-thiogalactopyranoside) and cells were further incubated at 30° C. overnight. The bacteria were harvested and sonicated in lysis buffer PBS (140 mM NaCl, 2.7 mM KCl, 10 mM Na2HPO4, 1.8 mM KH2PO4, pH 7.8) containing a protease inhibitors cocktail (Sigma). The protein lysate was loaded onto a GSTrap FF 1 ml affinity column (Amersham Biosciences) and the GST-CBS recombinant protein was eluted with the elution buffer (50 mM Tris-HCl, 10 mM reduced glutathione, pH 8.0) and then dialyzed and concentrated in 10 mM sodium phosphate buffer (pH 8.2) and DTT (1 mM).
Measurement of H2S production by recombinant CBS. The measurement of H2S production by recombinant CBS enzyme was performed as described (Asimakopoulou et al. 2013, Br J Pharmacol. 169(4):922-32). Briefly, each test consisted of a 100 μl reaction mixture in 50 mM sodium phosphate buffer pH 8.2 containing 1 μg of the purified human CBS enzyme, 0.01 mM pyridoxal-5′-phosphate (PLP), 10 mM L-cysteine and 0.5 mM homocysteine. […] The reaction was initiated by transferring the Eppendorf tubes from ice to a 37° C. shaking water bath. After 60 minutes of incubation at 37° C., the reaction was terminated by adding 1% ZnAc followed by 10% trichloroacetic acid. Subsequently, N,N-dimethylphenylendiamine sulfate (20 mM in 7.2 M HCl) and FeCl3 (30 mM in 1.2 M HCl) were added and the optical absorbance of the solutions was measured at 650 nm.

Each structure is given as a SMILES string.

For orientation: melting point means the temperature, or range, at which the solid turns liquid. `COc1cc(OC)c2c(=O)cc(-c3ccc(OCCN4CCCCC4)cc3)oc2c1` [Compound 14, 5,7-Dimethoxy-2-(4-(2-piperidin-1-yl-ethoxy)phenyl)-chromen-4-one] yielded a melting point of 79 to 80 °C. For the same compound, in data set [1], the “Inhibitory Effect (%) on PSC proliferation” value amounted to 64%, the inhibition at 5 µM came to 45%, the inhibition at 10 µM worked out at 64% and the inhibition at 20 µM came out at 97%. Besides, the “Antiproliferative effect on PSC, result in words” value (shortened to “Antiproliferative effect on PSC”) in data set [1] was “potent antiproliferative effects”. Moreover, in data set [2], the “Aqueous solubility compared with apigenin, result in words” value is given as “significantly improved solubility” and the “Aqueous solubility, saturated concentration” value is on record as 17.4 mg/mL. Besides, the activity at 100 µM in data set [3] is 129%.

For `COc1cc(OC)c2c(=O)cc(-c3ccc(OCCN4CCCC4)cc3)oc2c1` [Compound 16, 5,7-Dimethoxy-2-(4-(2-pyrrolidin-1-yl-ethoxy)phenyl)-chromen-4-one], the melting point is 114 to 115 °C. Moreover, in data set [1], the “Inhibitory Effect (%) on PSC proliferation” value came out at 66%, the inhibition at 5 µM was found to be 48%, the inhibition at 10 µM stood at 66% and the inhibition at 20 µM was 98%. Besides, in data set [1], the “Antiproliferative effect on PSC” value is “potent antiproliferative effects”. In data set [2], the “Aqueous solubility compared with apigenin, result in words” value is “significantly improved solubility” and the “Aqueous solubility, saturated concentration” value turned out to be 13.7 mg/mL. Besides, the activity at 100 µM in data set [3] was found to be 131%.

The compound `COc1cc(OC)c2c(=O)cc(-c3ccc(OCC(O)CN4CCCC4)cc3)oc2c1` (stereo not drawn) [Compound 25, 2-(4-(2-Hydroxy-3-pyrrolidin-1-yl-propoxy)phenyl)-5,7-dimethoxy-chromen-4-one] gave a melting point of 137 to 138 °C. In data set [1], the inhibition at 5 µM was 21%, the inhibition at 10 µM was found to be 37% and the inhibition at 20 µM was found to be 57%. Moreover, in data set [3], the activity at 100 µM is 85.9%.

Regarding `COc1cc(OC)c2c(=O)cc(-c3ccc(OCC(O)CN(C)C)cc3)oc2c1` (stereo not drawn) [Compound 26, 2-(4-(3-Dimethylamino-2-hydroxypropoxy)-phenyl)-5,7-dimethoxy-chromen-4-one], the melting point lay within 92 to 93 °C. Besides, in data set [1], the inhibition at 5 µM was 42%, the inhibition at 10 µM is 60% and the inhibition at 20 µM was 71%. Further, the activity at 100 µM in data set [3] was 117%.

Consider `COc1cc(OC)c2c(=O)cc(-c3ccc(OCC(O)CO)cc3)oc2c1` (stereo not drawn) [Compound 28, 2-(4-(2,3-Dihydroxypropoxy)phenyl)-5,7-dimethoxy-chromen-4-one], for which the melting point lay in the range of 203 to 204 °C. In addition, in data set [1], the inhibition at 10 µM was determined as 11%; the inhibition at 20 µM is 16%; the “Antiproliferative effect on PSC” value was “dramatic loss of activities”. In addition, the activity at 100 µM in data set [3] came out at 104%.

`COc1cc(OC)c2c(=O)cc(-c3ccc(-c4ccc(F)nc4)cc3)oc2c1` [Compound 33, 2-(4-(6-Fluoropyridin-3-yl)phenyl)-5,7-dimethoxy-chromen-4-one]: the melting point fell in the range of 209 to 210 °C. In addition, in data set [1], the inhibition at 10 µM turned out to be 6%; the inhibition at 20 µM was determined as 19%; the “Antiproliferative effect on PSC” value is on record as “substantial loss of the activity”. Besides, the activity at 100 µM in data set [3] is 107%.

In the case of `COc1cc(OC)c2c(=O)cc(-c3ccc(NCCN(C)C)cc3)oc2c1` [Compound 36, 2-(4-(2-Dimethylaminoethylamino)phenyl)-5,7-dimethoxy-chromen-4-one], the melting point was 159 to 160 °C. For the same compound, in data set [1], the inhibition at 5 µM was 30%, the inhibition at 10 µM was determined as 60% and the inhibition at 20 µM was 84%. The activity at 100 µM in data set [3] amounted to 112%.

Compound `COc1cc(OC)c2c(=O)cc(-c3ccc(NCCN4CCCC4)cc3)oc2c1` [Compound 37] showed a melting point of 148 to 149 °C. Moreover, in data set [1], the inhibition at 5 µM is 21%, the inhibition at 10 µM stood at 51% and the inhibition at 20 µM came to 80%. Further, the activity at 100 µM in data set [3] was 109%.

As to `COc1cc(O)c2c(=O)cc(-c3ccc(OCCN4CCCC4)cc3)oc2c1` [Compound 38], the melting point is 127 to 129 °C. Besides, in data set [1], the inhibition at 10 µM is 39% and the inhibition at 20 µM worked out at 99%. In data set [3], the activity at 100 µM was 109%.

Compound `O=c1cc(-c2ccc(OCCN3CCCC3)cc2)oc2cc(O)cc(O)c12` [Compound 39] came in with a melting point of 228 to 229 °C. Besides, in data set [1], the inhibition at 5 µM is 2%, the inhibition at 10 µM was found to be 71% and the inhibition at 20 µM worked out at 90%. Besides, the activity at 100 µM in data set [3] worked out at 99.6%.
